Values of other authors, collected in PubChem BioAssay AID1259409 (Chemical Carcinogenesis Research Information System (CCRIS), 2018).

Test system: rodent chemically induced tumor inhibition, incidence and multiplicity
Assay: CCRIS tumor inhibitor studies
Settings: Route [Inhibitor]: ORAL, Promoter: NONE USED

## CC1=C(/C=C/C(C)=C/C=C/C(C)=C\C(=O)O)C(C)(C)CCC1
Carcinogen: N-METHYL-N-NITROSOUREA, 684-93-5, Dose [Inhibitor]: 128 MG/KG DIET DAILY FOR 55 WK STARTING 1 WK AFTER LAST CARCINOGEN EXPOSURE (STUDY DURATION: 65 WK), Species: HAMSTER, Strain/Sex: SYRIAN/MALE, Target Tissue: Type of Lesion: TRACHEA: TUMOR, Dose [Carcinogen]: 1% FOR 7 SECONDS 2/WK FOR 9 WK
  tumour outcome (control, treated, inhibition, significance): 30/37 (81%), 26/34 (76%), 6%, not significant
Carcinogen: N-METHYL-N-NITROSOUREA, 684-93-5, Dose [Inhibitor]: 172 MG/KG DIET DAILY FOR 55 WK STARTING 1 WK AFTER LAST CARCINOGEN EXPOSURE (STUDY DURATION: 67.5 WK), Species: HAMSTER, Strain/Sex: SYRIAN/MALE, Target Tissue: Type of Lesion: TRACHEA: TUMORS, Dose [Carcinogen]: 1% FOR 7 SECONDS 2/WK FOR 11.5 WK
  tumour outcome (control, treated, inhibition, significance): 24/40 (60%), 24/40 (60%), 0%, not significant
Carcinogen: N-METHYL-N-NITROSOUREA, 684-93-5, Dose [Inhibitor]: 240 MG/KG OF DIET DAILY STARTING 5 D AFTER FINAL CARCINOGEN TREATMENT AND CONTINUING THROUGH END OF STUDY (STUDY DURATIO, Species: RAT, Strain/Sex: F344/MALE, Target Tissue: Type of Lesion: COLON: INVASIVE TUBULOPAPILLARY ADENOCARCINOMA, Dose [Carcinogen]: 0.5 MG 2/WK FOR 8 WK
  tumour outcome (control, treated, inhibition, significance): 33%, 27%, 18%, not significant
Carcinogen: N-METHYL-N-NITROSOUREA, 684-93-5, Dose [Inhibitor]: 240 MG/KG OF DIET DAILY STARTING 5 D AFTER FINAL CARCINOGEN TREATMENT AND CONTINUING THROUGH END OF STUDY (STUDY DURATIO, Species: RAT, Strain/Sex: F344/MALE, Target Tissue: Type of Lesion: COLON: INVASIVE TUBULOPAPILLARY ADENOCARCINOMA, Dose [Carcinogen]: 1 MG 2/WK FOR 8 WK
  tumour outcome (control, treated, inhibition, significance): 80%, 90%, -13%, not significant
Carcinogen: N-METHYL-N-NITROSOUREA, 684-93-5, Dose [Inhibitor]: 240 MG/KG OF DIET DAILY STARTING 5 D AFTER FINAL CARCINOGEN TREATMENT AND CONTINUING THROUGH END OF STUDY (STUDY DURATIO, Species: RAT, Strain/Sex: F344/MALE, Target Tissue: Type of Lesion: COLON: INVASIVE TUBULOPAPILLARY ADENOCARCINOMA, Dose [Carcinogen]: 2 MG 2/WK FOR 8 WK
  tumour outcome (control, treated, inhibition, significance): 95%, 100%, -5%, not significant
Carcinogen: N-NITROBIS(2-OXOPROPYL)AMINE, 60559-38-4, Dose [Inhibitor]: 0.4 MMOL/KG/D IN DIET STARTING 1 WK AFTER CARCINOGEN TREATMENT AND CONTINUING THROUGH THE END OF THE STUDY (STUDY DURATI, Species: HAMSTER, Strain/Sex: SYRIAN/FEMALE, Target Tissue: Type of Lesion: LIVER: BENIGN TUMOR, Dose [Carcinogen]: 40 MG/KG BW ONCE
  tumour outcome (control, treated, inhibition, significance): 4/20 (20%), 10/15 (67%), -235%, p<0.05
Carcinogen: N-NITROBIS(2-OXOPROPYL)AMINE, 60559-38-4, Dose [Inhibitor]: 0.4 MMOL/KG/D IN DIET STARTING 1 WK AFTER CARCINOGEN TREATMENT AND CONTINUING THROUGH THE END OF THE STUDY (STUDY DURATI, Species: HAMSTER, Strain/Sex: SYRIAN/FEMALE, Target Tissue: Type of Lesion: PANCREAS: DUCTULAR ADENOMA, Dose [Carcinogen]: 40 MG/KG BW ONCE
  tumour outcome (control, treated, inhibition, significance): 12/20 (60%), 7/14 (50%), 17%, not significant
Carcinogen: N-NITROBIS(2-OXOPROPYL)AMINE, 60559-38-4, Dose [Inhibitor]: 0.4 MMOL/KG/D IN DIET STARTING 1 WK AFTER CARCINOGEN TREATMENT AND CONTINUING THROUGH THE END OF THE STUDY (STUDY DURATI, Species: HAMSTER, Strain/Sex: SYRIAN/FEMALE, Target Tissue: Type of Lesion: PANCREAS: DUCTULAR CARCINOMA, Dose [Carcinogen]: 40 MG/KG BW ONCE
  tumour outcome (control, treated, inhibition, significance): 6/20 (30%), 9/14 (64%), -113%, not significant
Carcinogen: N-NITROBIS(2-OXOPROPYL)AMINE, 60559-38-4, Dose [Inhibitor]: 0.4 MMOL/KG/D IN DIET STARTING 1 WK AFTER CARCINOGEN TREATMENT AND CONTINUING THROUGH THE END OF THE STUDY (STUDY DURATI, Species: HAMSTER, Strain/Sex: SYRIAN/MALE, Target Tissue: Type of Lesion: PANCREAS: DUCTULAR CARCINOMA, Dose [Carcinogen]: 40 MG/KG BW ONCE
  tumour outcome (control, treated, inhibition, significance): 5/24 (21%), 9/24 (38%), -81%, not significant
Carcinogen: N-NITROBIS(2-OXOPROPYL)AMINE, 60559-38-4, Dose [Inhibitor]: 0.4 OR 0.8 MMOL/KG DIET DAILY STARTING 1 WK AFTER CARCINOGEN TREATMENT AND CONTINUING THROUGH THE END OF THE STUDY (STUD, Species: HAMSTER, Strain/Sex: SYRIAN/FEMALE, Target Tissue: Type of Lesion: LIVER: BENIGN TUMOR, Dose [Carcinogen]: 40 MG/KG BW ONCE
  tumour outcome (control, treated, inhibition, significance): 4/20 (20%), 10/15 (67%), -235%, p<0.05
Carcinogen: N-NITROBIS(2-OXOPROPYL)AMINE, 60559-38-4, Dose [Inhibitor]: 0.4 OR 0.8 MMOL/KG DIET DAILY STARTING 1 WK AFTER CARCINOGEN TREATMENT AND CONTINUING THROUGH THE END OF THE STUDY (STUD, Species: HAMSTER, Strain/Sex: SYRIAN/FEMALE, Target Tissue: Type of Lesion: PANCREAS: DUCTULAR ADENOMA, Dose [Carcinogen]: 10 MG/KG BW ONCE
  tumour outcome (control, treated, inhibition, significance): 5/23 (22%), 9/23 (39%), -77%, not significant
